target: GST-Bcl-2 (Homo sapiens, UniProt P10415); test: Time Resolved-Fluorescence Resonance Energy Transfer (TR-FRET) Bcl-2 binding assay; conditions: GST-Bcl-2 1 nM, F-Bak peptide probe 100 nM, Tb-anti-GST 1 nM; 3 hours at room temperature; Ki by Wang's equation
Experimental: Determination of the utility of compounds having Formula (I) as binders to and inhibitors of anti-apoptotic Bcl-2 proteins was performed using the Time Resolved-Fluorescence Resonance Energy Transfer (TR-FRET) Assay. Tb-anti-GST antibody was purchased from Invitrogen (Catalog No. PV4216).
Representative compounds were serially diluted in dimethyl sulfoxide (DMSO) starting at 50 μM (2x starting concentration; 10% DMSO) and 10 μL were transferred into a 384-well plate. The samples are then mixed on a shaker for 1 minute and incubated for an additional 3 hours at room temperature. For each assay, the probe/antibody and protein/probe/antibody were included on each assay plate as negative and positive controls, respectively. Fluorescence was measured on the ENVISION plate reader (Perkin Elmer) using a 340/35 nm excitation filter and 520/525 (F-Bak peptide) and 495/510 nm (Tb-labeled […] antibody) emission filters. Inhibition constants (Ki) are shown in TABLE 2 below and were determined using Wang's equation (Wang Z.-X. An Exact Mathematical Expression For Describing Competitive Binding Of Two Different Ligands To A Protein Molecule. FEBS Lett. 1995, 360:111-4).
The inhibition constant (Ki) is the dissociation constant of an enzyme-inhibitor complex or a protein/small molecule complex, wherein the small molecule is inhibiting binding of one protein to another protein. So a large Ki value indicates a low binding affinity and a small Ki value indicates a high binding affinity.
The compounds are therefore expected to have utility in treatment of diseases during which anti-apoptotic Bcl-2 protein is expressed.

Sequence of GST-Bcl-2 (P10415 whole entry): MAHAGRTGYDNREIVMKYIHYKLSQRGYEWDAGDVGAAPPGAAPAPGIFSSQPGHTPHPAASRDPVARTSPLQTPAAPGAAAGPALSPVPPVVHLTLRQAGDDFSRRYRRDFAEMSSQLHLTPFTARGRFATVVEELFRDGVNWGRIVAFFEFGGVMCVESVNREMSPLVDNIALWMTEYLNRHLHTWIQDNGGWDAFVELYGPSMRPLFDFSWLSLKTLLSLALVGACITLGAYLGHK

Row | SMILES | Ki
1 | O=C(NS(=O)(=O)c1ccc(F)cc1)c1ccc(N2CCN(Cc3ccccc3-c3ccc(Cl)cc3)CC2)cc1 [Example 19, 4-{4-[(4′-chloro-1,1′-biphenyl-2-yl)methyl]piperazin-1-yl}-N-[(4-fluorophenyl)sulfonyl]benzamide] | 403 nM
2 | O=C(NS(=O)(=O)c1cccc([N+](=O)[O-])c1)c1ccc(N2CCN(Cc3ccccc3-c3ccc(Cl)cc3)CC2)cc1S(=O)(=O)c1ccccc1 [Example 26, 4-{4-[(4′-chloro-1,1′-biphenyl-2-yl)methyl]piperazin-1-yl}-N-[(3-nitrophenyl)sulfonyl]-2-(phenylsulfonyl)benzamide] | 627 nM
3 | CC1(C)CCC(CN2CCN(c3ccc(C(=O)NS(=O)(=O)c4ccc(Cl)c([N+](=O)[O-])c4)c(Oc4cccc5[nH]ncc45)c3)CC2)=C(c2ccc(Cl)cc2)C1 [Example 38, N-[(4-chloro-3-nitrophenyl)sulfonyl]-4-(4-{[2-(4-chlorophenyl)-4,4-dimethylcyclohex-1-en-1-yl]methyl}piperazin-1-yl)-2-(1H-indazol-4-yloxy)benzamide] | 0.174 nM
4 | O=C(NS(=O)(=O)c1ccc([N+](=O)[O-])cc1)c1ccc(N2CCN(Cc3ccccc3-c3ccc(Cl)cc3)CC2)cc1Oc1ccccc1 [Example 22, 4-{4-[(4′-chloro-1,1′-biphenyl-2-yl)methyl]piperazin-1-yl}-N-[(4-nitrophenyl)sulfonyl]-2-phenoxybenzamide] | 17.3 nM
